Assay results as given in patent US20160199517A1, “MRI EVALUATION OF HETEROGENEOUS TISSUE” (The Board of Trustees of the Leland Stanford Junior …, priority 2015, published 2016).

Tested on: Ca^2+ channel
Test: MEMRI signal modulated by Ca2+ channel activity in single cell culture
Assay type: cell-based, human
Details: cells labelled with Mn^2+; Ca^2+ channel antagonist or agonist

For (s)-Bay K8644, the MEMRI signal was “increased”.
